The values below come from patent publication US20170202854A1, “Method for Treatment of Primary Hormone Resistant Endometrial and Breast Cancers” (Lipoxen Technologies Limited, priority 2014, published 2017).

Where two headings read alike, the source gives them in different places.

Test [1] concerns secondary PR negative Ishikawa cells. Description: Model of secondary PR-negative endometrial cancer (progestin-resistant Ishikawa xenograft). The format is in vivo, MF-1 female nude mice. To be noted: MPA 250 mg/kg/day i.p. 5 days per week, SC 0.3 mg/kg i.m. each alternate day. How it is done:
to obtain the secondary progestin-resistant subclones of human endometrial cancer cells, initially progestin sensitive PR-positive effect parent Ishikawa cells were routinely cultured in DMEM/F12 medium supplemented with 5% fetal bovine serum and medroxyprogesterone acetate (MPA) with 2.5 μM increases in MPA concentration (1.0-10 μM) every 4 weeks at 37° C. in a humidified atmosphere of 5% CO2. When the surviving cells had grown to a high density but were still less than confluent, cells were subcloned using 0.02% EDTA and 0.25% trypsin prepared in Hanks' balanced salt solution. MPA-containing medium was replaced every 2-3 days. Cells proliferating in 10 μM MPA with the same doubling time as the initial Ishikawa cells proliferating in the medium without MPA, were considered as secondary progestin-resistant Ishikawa cells. […] 2×10^6 secondary PR negative Ishikawa cells were inoculated into the flanks of MF-1 female nude mice in 100 μl Matrigel.
1) Vehicle control group: vehicle only, −0.9% sodium chloride for injection i.m each alternate day and i.p. for 5 days per week. 2) MPA only control group: medroxyprogesterone acetate (MPA) (250 mg/kg/day) i.p. for 5 days per week.
Tumors were measured with vernier calipers weekly. Tumor volumes (mm^3) were calculated using the modified ellipsoid formula: (length (mm)×width (mm)^2)/2. The ratio (percentage) of “Tumor volume at day n” to “tumor volume at day “0” was calculated for each animal. At the end of the experiments (day 35) animals were euthanized.

Test [2] has as its system human primary PR-negative endometrial cancer cells HEC-1B. Description: Mouse model of primary PR-negative endometrial cancer (HEC-1B xenograft). The format is in vivo, BNX nu/nu mice. The conditions noted are these: mean±SD of 20 tumors, MA 10 mg/day i.p. 5 days/week, SC 0.3 mg/kg i.m. each alternate day. How it is done: Treatment was started on the next day after the injection and discontinued after 5 weeks. Cohorts (10 mice/group) received either:
1) Vehicle control group: vehicle only, 0.9% sodium chloride for injection i.m each alternate day and i.p. for 5 days/week. 2) MA only control group: megestrol acetate (MA) (10 mg/day) i.p. for 5 days/week.
Tumors were measured every week with vernier calipers. Tumor size was calculated using the formula: A (length)×B (width)×C (height)×0.5236.

The next test has as its system MDA-MB-468 tumor cells. To be noted: day 21, alone or with SC 6 mg/mouse i.m. twice a week. How it is done:
The MDA-MB-468 (ATCC collection number ATCC® HTB-132, Neve et al., Cancer Cell 2006, 10:515-527) tumor cells (the xenograft of human primary ER-negative breast cancer) were maintained in vitro as a monolayer culture in L-15 medium supplemented with 10% heat inactivated fetal bovine serum, 100 U/ml penicillin and 100 μg/ml streptomycin, and L-glutamine (2 mM) at 37° C. in an atmosphere of 5% CO2 in air. The tumor cells were routinely subcultured twice weekly by trypsin-EDTA treatment. The cells growing in an exponential growth phase were harvested and counted for tumor inoculation.
BALB/c nude (Shanghai Sino-British SIPPR/BK Laboratory Animal Co., Ltd.), 6-8 weeks old female mice were inoculated subcutaneously at the right flank with MDA-MB-468 tumor cells (1×10^7) in 0.2 ml of PBS supplemented with BD Matrigel (1:1) for tumor development. The treatments were started on day 17 after tumor inoculation when the average tumor size reached approximately 170 mm^3. […] Each group consisted of 8 tumor-bearing mice.
Tumor size was measured twice weekly in two dimensions using a caliper, and the volume was expressed in mm3 using the formula: V=0.5 a×b2 where a and b are the long and short diameters of the tumor, respectively.
Significance level was assumed as 0.05.

[3] abbreviates: TAM 50 mg/kg oral gavage every day.
Where [4] appears, read: TAM 100 mg/kg oral gavage every day.

Regarding `CC(=O)O[C@]1(C(C)=O)CC[C@H]2[C@@H]3C[C@H](C)C4=CC(=O)CC[C@]4(C)[C@H]3CC[C@@]21C` [MPA, medroxyprogesterone acetate], the “Tumor volume at day n/tumor volume at day "0", %, mean ± SEM” value in test [1] (Day 7) stood at 170 ± 19%; in test [1] (Day 14) it was 412 ± 36%; in test [1] (Day 21), 512 ± 66%; in test [1] (Day 28) it was 822 ± 89%; in test [1] (Day 35), 1224 ± 99%.
For `CC(=O)O[C@]1(C(C)=O)CC[C@H]2[C@@H]3C=C(C)C4=CC(=O)CC[C@]4(C)[C@H]3CC[C@@]21C` [MA, megestrol acetate], the Tumor volume is on record as 58 ± 16 mm^3 in test [2] (Week 1); 177 ± 19 mm^3 in test [2] (Week 2); 510 ± 66 mm^3 in test [2] (Week 3); 794 ± 111 mm^3 in test [2] (Week 4); 1383 ± 151 mm^3 in test [2] (Week 5).
Regarding `CC/C(=C(\c1ccccc1)c1ccc(OCCN(C)C)cc1)c1ccccc1` [TAM, Tamoxifen], in the test on MDA-MB-468 tumor cells (setting [3]), the TGI is on record as −65% and the “Tumor volume” value was 473 ± 59 mm^3. Moreover, in the test on MDA-MB-468 tumor cells (setting [4]), the TGI was −1% and the “Tumor volume” value is reported as 355 ± 25 mm^3.
